Measured values as given in patent US5324725A, “7-fused 2-(piperazinoalkyl) indole derivatives, intermediates and compositions thereof” (Kali-Chemie Pharma GmbH, priority 1991, dated 1994).

Tests used:
[1] = Determination of the minimum toxic dose; design: species or system male mice; conditions: mouse, in vivo, po, 300 mg/kg, 1440 min
Protocol: 2. Determination of the minimum toxic dose.
Maximum doses of 300 mg/kg of the test substance were administered orally to male mice weighing 20-25 g. The animals were observed carefully for 3 hours for toxicity symptoms. In addition, all symptoms and deaths over a period of 24 hours after administration were recorded. Associated symptoms were also observed and recorded. If death or severe toxic symptoms were observed, further mice were administered increasingly lower doses. The lowest dose which caused death or severe toxic symptoms is given as the minimum toxic dose in the following Table B.

[2] = target: T1, 5-lipoxygenase (Mus musculus, UniProt P48999); experiment: 5-lipoxygenase inhibition: release of LTC4 from zymosan-stimulated mouse peritoneal macrophage cells; assay type: cell-based; conditions: 10^-5 mol/l, read-out: In vitro % inhibition effect on the release of LTC4
T1 construct: A cell suspension containing peritoneal cells of male mice 8-10 weeks old was obtained; endogenous in cells; host or cells: mouse peritoneal macrophages (male mice 8-10 weeks old), zymosan-stimulated
T1 sequence (P48999 1-674): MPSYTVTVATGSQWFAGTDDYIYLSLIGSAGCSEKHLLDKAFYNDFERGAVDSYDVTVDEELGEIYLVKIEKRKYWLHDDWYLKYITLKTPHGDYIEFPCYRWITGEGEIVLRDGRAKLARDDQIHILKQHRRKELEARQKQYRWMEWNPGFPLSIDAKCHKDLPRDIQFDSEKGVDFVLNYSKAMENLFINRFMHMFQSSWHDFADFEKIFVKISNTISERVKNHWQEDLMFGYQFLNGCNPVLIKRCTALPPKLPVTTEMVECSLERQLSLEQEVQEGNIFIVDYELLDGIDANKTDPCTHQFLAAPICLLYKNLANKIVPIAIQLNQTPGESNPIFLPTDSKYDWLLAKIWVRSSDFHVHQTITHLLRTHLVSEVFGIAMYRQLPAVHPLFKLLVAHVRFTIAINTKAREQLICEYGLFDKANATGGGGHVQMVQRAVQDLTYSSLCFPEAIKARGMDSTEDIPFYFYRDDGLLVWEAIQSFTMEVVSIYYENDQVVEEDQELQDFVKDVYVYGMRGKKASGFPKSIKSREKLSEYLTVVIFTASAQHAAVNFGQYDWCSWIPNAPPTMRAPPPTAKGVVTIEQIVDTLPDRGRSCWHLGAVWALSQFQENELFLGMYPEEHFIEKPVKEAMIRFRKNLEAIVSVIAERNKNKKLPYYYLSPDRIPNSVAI
Description: 5. In vitro determination of cyclooxygenase inhibition and 5-lipoxygenase inhibition.
After activation of the cell, arachidonic acid contained in cell membranes is metabolized in two ways. Leukotrienes, inter alia leukotriene C4, are formed under the action of the enzyme 5-lipoxygenase (5-LO), and prostanoids are formed under the action of the enzyme cyclooxygenase (CO). In in vitro systems, the metabolites are secreted from the cell.
To investigate the cyclooxygenase-inhibiting and the 5-lipoxygenase-inhibiting properties, the inhibitory effect of the test substances on the biosynthesis of the arachidonic acid derivatives leukotriene C4 (LTC4) and 6-ketoprostaglandin F1 α (6-keto-PGF1 α) is determined in vitro on mouse peritoneal macrophage cells. This was accomplished by determining the LTC4 and 6-keto-PGF1 α contents in a culture medium of mouse peritoneal macrophage cells by zymosan stimulation as described by Scott et al. (J. Exp. Med. 152 (1980), 324-335) and by Fradin et al. (Prostaglandins, 33 (1987), 579-589).
A cell suspension containing peritoneal cells of male mice 8-10 weeks old was obtained in a known manner. A commercially available cell culture solution (RPMI 1640 from Messrs. Gibco) was used to which heparin (I0 international units/ml) and antibiotics were added according to the recipe of Bonney et al. (Biochem. J. 176 (1978) 422-433). The cell suspension was adjusted to a cell concentration of 10^6 cells per ml and distributed uniformly on titer plates containing […] (wells). These were kept for two hours in a humidified incubator filled with air enriched with 7% CO2. Cells not adhering to the titer cell walls were then removed by washing. The remaining macrophage cells adhering to the walls were incubated for about 12 hours in a suspension medium to which 0.1% bovine serum albumin (BSA) were added. The suspension medium was then replaced by a Hanks balanced salt solution (HBSS) containing 10 mM Hepes (hydroxyethyl-piperazinoethanesulfonic acid), to which a 0.1% strength solution of the test substances in aqueous, 1% strength dimethylformamide or only the solvent had been added. After 15 minutes the arachidonic acid metabolism was stimulated by adding 10 particles of zymosan (=glycoproteinmixture, isolated from cell walls of beer yeast, Saccharomyces cerevisiae, manufactured by Sigma Chemical Co., Munich) per titer cell. After 2 hours, samples of each of the supernatant liquids were investigated for their 6-keto-PGF1 α and LTC4 contents by means of an enzyme immunoassay (EIA) carried out by the method of Pradelles et al. (Analytical Chem. 57 (1985), 1170-1173). The determination of LTC4 and the determination of 6-keto-PGF1 α were each carried out in comparison with a comparative scale on suitable dilutions of the samples (1:50 to 1:250 for the LTC4 determination and 1:250 to 1:1250 for the 6-keto-PGF1 α determination). To determine the inhibitory effect of a 10^-5 molar concentration of the compounds, the amount of reference eicosanoids was determined and the inhibitory effect was calculated from this in % inhibition compared to the measurements of the zymosan controls.

| Structure (SMILES) | Minimum toxic dose (lowest dose which caused death or severe toxic symptoms) [1] | inhibition at 10 µM [2] |
| --- | --- | --- |
| Cc1ccnc(N2CCN(CCc3c(C)n4c5c(cccc35)CCC4)CC2)c1 [Example 1, 5,6-Dihydro-2-methyl-1-{2-[4-(4-methylpyridin-2-yl)piperazin-1-yl]ethyl}-4H-pyrrolo[3,2,1-ij]quinoline] | 100 mg/kg | 24% |
| Cc1ccnc(N2CCN(CCc3c(C)n4c5c(cccc35)SCC4)CC2)c1 [Example 11, 5-Methyl-6-{2-[4-(4-methylpyridin-2-yl)piperazin-1-yl]ethyl}-2,3-dihydro-pyrrolo[1,2,3-de]-1,4-benzo-thiazine] | 100 mg/kg | – |
| Cc1ccnc(N2CCN(CCc3c(C)n4c5c(cccc35)CCC4c3ccccc3)CC2)c1 (stereo not shown) [Example 3, 5,6-dihydro-2-methyl-4-phenyl-1-{2-[4-(4-methylpyridine-2-yl)piperazin-1-yl]-ethyl}-4H-pyrrolo[3,2,1-ij]quinoline] | 300 mg/kg | 37% |
| Cc1cc2c3c(c1)c(CCN1CCC(C(=O)c4ccc(F)cc4)CC1)c(C)n3CCC2 [Example 55] | 300 mg/kg | 45% |
| Cc1ccnc(N2CCN(CCc3c(C)n4c5c(cc(C)cc35)CCC4)CC2)c1 [Example 54] | 300 mg/kg | – |
| Cc1ccnc(N2CCN(CCc3c(C)n4c5c(cccc35)C(C)CC4)CC2)c1 (stereo not shown) [Example 57] | 300 mg/kg | – |
| Cc1ccnc(N2CCN(CCc3c(C)n4c5c(ccc(Cl)c35)OCC4)CC2)c1 [Example 35] | 300 mg/kg | 75% |
| Cc1ccnc(N2CCN(CCc3cn4c5c(cccc35)CCC4)CC2)c1 [Example 13, 5,6-Dihydro-1-{2-[4-(4-methylpyridin-2-yl)piperazin-1-yl]ethyl}-4H-pyrrolo[3,2,1-ij]quinoline] | 100 mg/kg | – |
| CCc1c(C(O)CN2CCN(c3cc(C)ccn3)CC2)c2cccc3c2n1CCC3 (stereo not shown) [Example 14, 2-Ethyl-5,6-dihydro-1-{2-[4-(4-methylpyridin-2-yl)piperazin-1-yl]-1-hydroxyethyl}-4H-pyrrolo[3,2,1-ij]quinoline] | 300 mg/kg | 55% |
| Cc1ccc(N2CCN(CCc3c(C)n4c5c(cccc35)CCC4)CC2)nc1 [Example 42] | 100 mg/kg | 15% |
